Experimental findings from ChEMBL document CHEMBL3612062, “Antitumor activity of endoperoxide-iron chelator conjugates-design, synthesis and biological evaluation” (Eur J Med Chem, 2015) are described below.

Molecules are shown by their SMILES. A value given as a limit tells only on which side of the number the result lay.

One data set relates to SW480. Briefly: Cytotoxicity against human SW480 cells after 48 hrs by MTT assay. Type of data set: functional, cell-based. The settings on record: SW480, 48 h. (In general: Tetrazolium assays rely on reduction of a dye to a coloured formazan, in cell work by metabolically active cells.)
In another data set the test system is HL-60. In words: Cytotoxicity against human HL60 cells after 48 hrs by MTT assay. In kind it is functional, cell-based. The settings on record: HL-60, 48 h.
The test system of data set [1] is SMMC-7721. In words: Cytotoxicity against human SMMC7721 cells after 48 hrs by MTT assay. The settings on record: SMMC-7721, 48 h. Type of data set: functional, cell-based.
The next data set has as its system A549. In words: Cytotoxicity against human A549 cells after 48 hrs by MTT assay. In kind it is functional, cell-based. The settings on record: A549, 48 h.
Data set [2] is described as follows: Cytotoxicity against human HL7702 cells after 48 hrs by MTT assay. Type of data set: cell-based. The settings on record: L02, 48 h.
In data set [3] the test system is SMMC-7721. In words: Increase of cell survival in human SMMC7721 at 50 uM after 48 hrs by MTT assay in presence of deferoxamine. Type of data set: functional.
A short description of data set [4]: Stability of the compound-ferric oxide complex. Type of data set: physicochemical.
Data set [5] deals with SMMC-7721. Briefly: Induction of apoptosis in human SMMC7721 cells at 20 uM after 24 hrs using annexin-V FITC and propidium iodide staining by flow cytometry analysis. In kind it is functional. Background: Flow cytometry measures light scatter and fluorescence of single cells or particles in a stream.
Data set [6] is described as follows: Metal chelating activity of the compound assessed as formation of iron-compound complex at 100 uM using FeCl3 by UV-vis spectrometry. Type of data set: physicochemical.
The nature of data set [7]: Selectivity ratio of IC50 for human HL7702 cells to IC50 for human SMMC7721 cells. In kind it is ADME, cell-based, SMMC-7721. The settings on record: HL7702 cells versus SMMC7721 cells, read-out: Ratio IC50.
The test system of data set [8] is SMMC-7721. Briefly: Induction of apoptosis in human SMMC7721 cells after 24 hrs using annexin-V FITC and propidium iodide staining by flow cytometry analysis. Type of data set: functional, cell-based.
Data set [9] is described as follows: Metal chelating activity of the compound assessed as formation of iron-compound complex at 100 uM using FeSO4 by UV-vis spectrometry. In kind it is physicochemical.
Data set [10] concerns SMMC-7721. Briefly: Induction of apoptosis in human SMMC7721 cells at 10 uM after 24 hrs using annexin-V FITC and propidium iodide staining by flow cytometry analysis. In kind it is functional.
Data set [11] in a line: Binding affinity to ferric oxide assessed as dissociation degree at 2:1 ligand to metal ratio by UV-visible spectrophotometry.
For data set [12], the system named is SMMC-7721. In words: Cytotoxicity against human SMMC7721 cells assessed activity loss of cells at 5 uM after 48 hrs by MTT assay. In kind it is functional.
The nature of data set [13]: Binding affinity to ferric oxide assessed as dissociation degree at 1:1 ligand to metal ratio by UV-visible spectrophotometry.

In the case of `O=C(N[C@H]1CC[C@@]2(CC1)OC[C@]1(OO2)C2CC3CC(C2)CC1C3)c1ccc(O)c(O)c1` (mixture of isomers), the IC50 – broadly, the point on the concentration scale where inhibition reaches its midpoint – with SW480 was > 50 µM; in the data set with HL-60 it was 34.8 µM; with SMMC-7721 [1], > 50 µM; with A549, > 50 µM; in data set [2], > 50 µM. For the same molecule, the Activity in the data set on SMMC-7721 [3] was determined as 10%.
As to `Oc1ccc(NC2CCC3(CC2)OOC2(OO3)C3CC4CC(C3)CC2C4)c2cccnc12` (mixture of isomers), in data set [4], the Stability entry is given as “Stable”. Besides, the IC50 with SW480 is > 50 µM; in the data set on HL-60 it was 6 µM; in the data set with SMMC-7721 [1], 7.5 µM; in the data set with A549, 11.8 µM; in data set [2], 27.7 µM. Also, the Activity with SMMC-7721 [5] was 33.2%; in data set [6] it was “Active”; in the data set on SMMC-7721 [8], “Dose-dependent effect”; in data set [9], “Active”; in the data set on SMMC-7721 [10], 12.2%; in data set [11], 18%. Besides, in the data set on SMMC-7721 [3], the Activity is listed as 15%. Further, the selectivity ratio in [7] was found to be 3.71.
Turning to `O=C1CCC2(CC1)OOC1(OO2)C2CC3CC(C2)CC1C3`, the IC50 (in the data set with SW480; in the data set with HL-60; with SMMC-7721 [1]; in the data set with A549; in data set [2]) was > 100 µM each time.
As for `CC(=O)N(O)CCCCCNC(=O)CCC(=O)N(O)CCCCCNC(=O)CCC(=O)N(O)CCCCCN` [DEFEROXAMINE], the Activity in the data set with SMMC-7721 [12] worked out at 5%.
Take `O=C(O)C1CCC2(CC1)OOC1(OO2)C2CC3CC(C2)CC1C3` (centres undefined): the IC50 (in the data set with SW480; in the data set with HL-60; in the data set with SMMC-7721 [1]; in the data set with A549; in data set [2]) was > 100 µM each time.
`C[C@H]1[C@@H](O)O[C@@H]2O[C@@]3(C)CC[C@H]4[C@H](C)CC[C@@H]1[C@@]24OO3` [ARTENIMOL]: the IC50 in the data set on SW480 was > 100 µM; in the data set on HL-60 it was 18.7 µM; in the data set with SMMC-7721 [1], 13.8 µM; in the data set with A549, 30.1 µM; in [2] it was 34.9 µM. In [7], the selectivity ratio was determined as 2.52.
For `O=C(O)[C@H]1CC[C@@]2(CC1)OC[C@]1(OO2)C2CC3CC(C2)CC1C3`, the IC50 (in the data set with SW480; in the data set with HL-60; in the data set on SMMC-7721 [1]; with A549; in data set [2]) was > 100 µM throughout.
`O=C(O)c1ccc(O)c(O)c1` [PROTOCATECHUIC ACID]: the IC50 (with SW480; in the data set with HL-60; in the data set on SMMC-7721 [1]; in the data set with A549; in data set [2]) was > 50 µM each time.
Regarding `O=C1CCC2(CC1)OCC1(OO2)C2CC3CC(C2)CC1C3` (centres undefined), the IC50 (in the data set on SW480; in the data set on HL-60; in the data set with SMMC-7721 [1]; in the data set with A549; in [2]) was > 100 µM each time.
Turning to `Oc1ccc(N[C@H]2CC[C@]3(CC2)OO[C@]2(O3)C3CC4CC(C3)CC2C4)c2cccnc12` (mixture of isomers), the 50% inhibitory concentration (IC50) in the data set with SW480 was > 50 µM; with HL-60 it was 8.1 µM; in the data set on SMMC-7721 [1], 7.3 µM; in the data set with A549, 15.9 µM; in data set [2] it was 25.7 µM. Also, in data set [7], the selectivity ratio was 3.52. Further, in the data set with SMMC-7721 [3], the Activity was 15%.
Turning to `O=C(N[C@H]1CC[C@]2(CC1)OO[C@]1(O2)C2CC3CC(C2)CC1C3)c1ccc(O)c(O)c1` (mixture of isomers), the IC50 in the data set with SW480 was > 50 µM; in the data set with HL-60 it was 31.2 µM; in the data set on SMMC-7721 [1], > 50 µM; with A549, > 50 µM; in [2], > 50 µM. Moreover, the Activity in the data set on SMMC-7721 [3] turned out to be 10%.
For `Oc1ccc(NC2CCC3(CC2)OCC2(CO3)C3CC4CC(C3)CC2C4)c2cccnc12` (mixture of isomers), the IC50 in the data set with SW480 is > 50 µM; with HL-60 it was 12.9 µM; in the data set on SMMC-7721 [1] it was 20.3 µM; in the data set on A549, 45.6 µM; in data set [2], 41.9 µM. The selectivity ratio in data set [7] was 2.06.
With `O=C(NC1CCC2(CC1)OOC1(OO2)C2CC3CC(C2)CC1C3)c1ccc(O)c(O)c1` (centres undefined), in data set [4], the Stability entry is “Stable”. Besides, the IC50 in the data set on SW480 was > 50 µM; in the data set with HL-60, 25 µM; in the data set on SMMC-7721 [1], 33.8 µM; in the data set on A549, > 50 µM; in data set [2], > 50 µM. Moreover, the Activity result in [6] is “Active”; in data set [9], “Active”; in data set [13] it was 36%; in the data set on SMMC-7721 [3], 10%.
As for `O=C(O)[C@H]1CC[C@]2(CC1)OO[C@]1(O2)C2CC3CC(C2)CC1C3`, the IC50 (in the data set on SW480; in the data set on HL-60; in the data set on SMMC-7721 [1]; in the data set on A549; in [2]) was > 100 µM each time.
Take `O=C(NC1CCC2(CC1)OCC1(CO2)C2CC3CC(C2)CC1C3)c1ccc(O)c(O)c1` (mixture of isomers): the IC50 in the data set with SW480 was > 50 µM; in the data set with HL-60 it was 30.1 µM; with SMMC-7721 [1], > 50 µM; in the data set with A549, > 50 µM; in data set [2], > 50 µM.
Take `O=C1CCC2(CC1)OOC1(O2)C2CC3CC(C2)CC1C3` (centres undefined): the IC50 (with SW480; with HL-60; in the data set with SMMC-7721 [1]; in the data set with A549; in data set [2]) was > 100 µM each time.
With `Oc1ccc(N[C@H]2CC[C@@]3(CC2)OC[C@]2(OO3)C3CC4CC(C3)CC2C4)c2cccnc12` (mixture of isomers), the IC50 in the data set with SW480 is > 50 µM; in the data set on HL-60, 6.6 µM; with SMMC-7721 [1] it was 11 µM; in the data set on A549 it was 23.9 µM; in [2] it was 36 µM. In addition, the selectivity ratio in [7] turned out to be 3.28. For the same molecule, the Activity in the data set with SMMC-7721 [3] is 15%.
For `O=C(N[C@H]1CC[C@]2(CC1)OC[C@]1(O2)C2CC3CC(C2)CC1C3)c1ccc(O)c(O)c1` (mixture of isomers), the IC50 in the data set with SW480 is > 50 µM; in the data set with HL-60, 35.5 µM; with SMMC-7721 [1] it was > 50 µM; with A549 it was > 50 µM; in data set [2], > 50 µM.
As for `Oc1ccc(N[C@H]2CC[C@]3(CC2)OC[C@]2(O3)C3CC4CC(C3)CC2C4)c2cccnc12` (mixture of isomers), the IC50 is > 50 µM with SW480; 9.2 µM with HL-60; 12.6 µM with SMMC-7721 [1]; 17.2 µM in the data set with A549; 30.1 µM in [2]. For the same molecule, in data set [7], the selectivity ratio was 2.39.
With `Nc1ccc(O)c2ncccc12`, the IC50 in the data set with SW480 is > 50 µM; in the data set with HL-60 it was 13.8 µM; in the data set on SMMC-7721 [1], > 50 µM; in the data set on A549, > 50 µM; in data set [2], > 50 µM.
For `O=C(NO)C1CCC2(CC1)OOC1(OO2)C2CC3CC(C2)CC1C3` (centres undefined), the IC50 (in the data set on SW480; in the data set on HL-60; in the data set with SMMC-7721 [1]; in the data set with A549; in [2]) was > 50 µM throughout.
As to `O=C(NO)[C@H]1CC[C@@]2(CC1)OC[C@]1(OO2)C2CC3CC(C2)CC1C3` (mixture of isomers), the IC50 (in the data set on SW480; with HL-60; in the data set on SMMC-7721 [1]; in the data set with A549; in data set [2]) was > 50 µM each time.
For the molecule `O=C(NO)[C@H]1CC[C@]2(CC1)OO[C@]1(O2)C2CC3CC(C2)CC1C3` (mixture of isomers), the IC50 (in the data set on SW480; in the data set with HL-60; with SMMC-7721 [1]; in the data set with A549; in data set [2]) was > 50 µM in each case.
